Columns and labels:
Ljungan virus (LV) [1] = conditions: number of 7 mice; 200 mg per kg orally daily for 50 days from day 35; terminated at day 120
Description: An ALS mouse model was used in which the mice are transgenic for superoxide dismutase 1 (SOD1). […] The inventors treated the LV infection in these mice using two different antiviral compounds separately and in combination. One group of mice was kept as a control.
Groups of seven 35 day old B6SJL-Tg-SOD1-G93 mice were treated with two antiviral compounds, Pleconaril and Ribavirin (200 mg of each per kg body weight), orally with a tube connected to a syringe daily for 50 consecutive days. Mice were observed every day for signs of paralysis.
The experiment was terminated at day 120 when all untreated animals were expected to have developed severe paralysis and death.

Ljungan virus (LV) [2] = test: Diabetes in male CD-1 mice infected with LV in utero and subjected to stress (glucose tolerance test, abdominal fat, serum insulin); type: in vivo
Description: Animals CD-1 (ICR) mice were obtained from Br Charles River laboratories, Germany. Glucose tolerance test was performed to diagnose diabetes. In this test 2 g glucose per kg body weight was injected intraperitoneally (as 100 mg glucose/ml solution). Blood glucose was measured (Medisence Precision PCx Abbott Laboratories) before the injection of glucose and after 60 and 120 min. Diabetes was defined as a blood glucose level above 200 mg/dL at 120 min. Abdominal fat in male mice was measured by dissecting out the bilateral scrotal fat cushion. The total weight of both fat cushions was used.
Analysis of insulin Serum insulin was measured using a rat insulin ELISA kit (Mercodia AB).
Transmission of LV to CD-1 mice followed by antiviral treatments Pregnant outbred CD1 mice were infected intraperitoneally with 1000 ID50 (determined by intra cerebral titration in suckling mice) units of LV145 SL two days after conception. Control animals were given an injection of saline. All female mice were kept in individual cages and followed for the development of gestational diabetes, pregnancy outcome and development of diabetes in the offspring. In all the pregnant mice mild stress was induced by adding glucose (100 g/L) to drinking water, performing weekly weights and a glucose tolerance test at the end of the pregnancy. At five weeks of age antiviral therapy to the male offsprings, using LV-specific murine antiserum or the oral antiviral compound Pleconaril (200 mg per kg body weight) or a combination of both, were given once a day for four consecutive days. The control groups of infected and uninfected male offsprings were untreated. From the age of 25 days all mice were subjected to stress by placing 4-5 male mice from different litters in the same cage. At 15 weeks of age the animals were subjected to a glucose tolerance test. Serum insulin levels and abdominal fat were measured.
Statistics The glucose tolerance test in the CD-1 mice was evaluated by Fisher's exact one sided test. Otherwise statistical significance in the CD-1 mice was evaluated by Student's t-test. P values <0.05 were considered significant. Data are presented as means±s.e.m.

LV = test: Inhibitory effect on LV in tissue culture; type: cell-based
Source text: Antiviral agents Pleconaril (VP-63843) a novel, orally bio-available, broad spectrum anti-picorna-viral agent developed as a therapeutic tool in entero- and rhino viral infections, was used alone or in combination with specific antiserum for intervention.

Row | Structure (SMILES) | Mice with paralysis (including death) (Ljungan virus (LV) [1]) | Mice without paralysis (Ljungan virus (LV) [1]) | No. with blood glucose >200 mg/dL at 120 min (percent of group) (Ljungan virus (LV) [2]; glucose tolerance test at 15 weeks of age, LV infected, stressed male CD-1 mice) [%] | Blood glucose at 60 min (Ljungan virus (LV) [2]; glucose tolerance test, 2 g glucose per kg i.p., means±s.e.m.) [mg/dL] | No. with blood glucose >200 mg/dL at 120 min (Ljungan virus (LV) [2]; number of mice, glucose tolerance test at 15 weeks of age, LV infected, stressed male CD-1 mice, treatment once a day for four days at five weeks of age) | Serum insulin (Ljungan virus (LV) [2]; rat insulin ELISA, means±s.e.m.) [µg/L] | Abdominal fat (Ljungan virus (LV) [2]; total weight of bilateral scrotal fat cushions, means±s.e.m.) [g] | inhibitory effect on LV (LV)
1 | Cc1cc(CCCOc2c(C)cc(-c3noc(C(F)(F)F)n3)cc2C)on1 [Pleconaril, (3-[3,5-dimethyl-4-[[3-(3-methyl-5-isoxazolyl)propyl]oxy]phenyl]-5-(trifluoromethyl)-1,2,4-oxadiazole)] | 5 | 2 | 9 | 211 ± 23.8 | 1 | 4.15 ± 1.52 | 2.1 ± 0.31 | some inhibitory effect on LV
2 | NC(=O)c1ncn([C@@H]2O[C@H](CO)[C@@H](O)[C@H]2O)n1 [Ribavirin, 1-[(2R,3R,4S,5R)-3,4-dihydroxy-5-(hydroxymethyl)oxolan-2-yl]-1H-1,2,4-triazole-3-carboxamide] | 6 | 1 | – | – | – | – | – | –

— patent US20110033418A1, “TREATMENT OF DISEASES CAUSED BY VIRAL INFECTION” (priority 2009, published 2011)
